These results are taken from ChEMBL document CHEMBL1124680, “Cyclic enkephalin analogues containing alpha-amino-beta-mercapto-beta,beta-pentamethylenepropionic acid at positions 2 or 5” (J Med Chem, 1989).

What is called IC50 is the point on the concentration scale where inhibition reaches its midpoint. Low values mean greater potency in that assay, high ones weaker potency in that assay. As a reminder, the Ki is a measure of affinity in units of concentration, obtained from inhibition or displacement.

For one experiment, the species on record is Cavia porcellus. The experiment in a line: The compound was tested In vitro for the ability to inhibit electrically induced contractions of the guinea pig ileum. The experiment is classed as functional.
For another experiment, the species on record is Mus musculus. In words: The compound was tested In vitro for the ability to inhibit electrically induced contractions of the mouse vas deferens. The experiment is classed as functional.
The nature of experiment [1]: (§1) Ratio of inhibition of electrically induced contractions in GPI and MVD. The experiment is classed as functional.
In experiment [2] the target is Kappa-type opioid receptor (Rattus norvegicus, UniProt P34975). The experiment in a line: The compound was tested for the ability to displace opioid receptor kappa specific radioligand [3H]DADLE.
The target of experiment [3] is T1, Delta-type opioid receptor (Rattus norvegicus, UniProt P33533). In words: The compound was tested for the ability to displace delta-receptor specific radioligand [3H]DPDPE.
T1 sequence (P33533 whole entry): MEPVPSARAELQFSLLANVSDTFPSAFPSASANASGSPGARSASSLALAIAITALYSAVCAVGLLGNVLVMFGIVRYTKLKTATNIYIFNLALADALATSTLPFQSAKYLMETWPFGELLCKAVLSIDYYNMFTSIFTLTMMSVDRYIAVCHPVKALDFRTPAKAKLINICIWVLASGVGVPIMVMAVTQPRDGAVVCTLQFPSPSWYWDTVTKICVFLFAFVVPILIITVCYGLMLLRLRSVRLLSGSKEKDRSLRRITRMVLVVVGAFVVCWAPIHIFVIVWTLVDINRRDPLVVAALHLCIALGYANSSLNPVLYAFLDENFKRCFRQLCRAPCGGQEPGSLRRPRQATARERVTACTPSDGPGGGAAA
Experiment [4] addresses T1, Delta-type opioid receptor. In words: The compound was tested for the ability to displace delta-receptor specific radioligand [3H]DSLET.
Experiment [5] concerns the target T2, Mu-type opioid receptor (Rattus norvegicus, UniProt P33535). In words: The compound was tested for the ability to displace Opioid receptor mu 1 specific radioligand [3H]DAGO.
The target in experiment [6] is T1, Delta-type opioid receptor. The experiment in a line: The compound was tested for the ability to displace opioid receptor delta specific radioligand [3H]-DSLET.
In experiment [7] the target is T1, Delta-type opioid receptor. In words: The compound was tested for the ability to displace receptor specific radioligand [3H]DPDPE.
The target of experiment [8] is T2, Mu-type opioid receptor. In words: The compound was tested for the ability to displace mu-receptor specific radioligand [3H]DAGO.
Experiment [9] in a line: as §1.

T2 sequence (P33535 whole entry): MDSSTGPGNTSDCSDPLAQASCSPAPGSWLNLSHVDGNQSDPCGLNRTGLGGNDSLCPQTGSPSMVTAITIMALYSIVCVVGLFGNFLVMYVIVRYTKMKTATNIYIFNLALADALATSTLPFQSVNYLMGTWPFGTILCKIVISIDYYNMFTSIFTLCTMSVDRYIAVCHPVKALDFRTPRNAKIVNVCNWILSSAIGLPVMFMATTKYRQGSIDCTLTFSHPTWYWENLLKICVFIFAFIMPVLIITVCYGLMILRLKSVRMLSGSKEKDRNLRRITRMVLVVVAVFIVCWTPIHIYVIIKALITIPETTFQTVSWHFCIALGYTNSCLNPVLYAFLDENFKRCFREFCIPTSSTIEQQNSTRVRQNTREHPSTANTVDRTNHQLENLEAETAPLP

With `N[C@@H](Cc1ccc(O)cc1)C(=O)N[C@@H]1CSSC2(CCCCC2)[C@@H](C(=O)O)NC(=O)[C@H](Cc2ccccc2)NC(=O)CNC1=O`, the IC50 in the experiment filed under Cavia porcellus (Cavia porcellus, Ileum) was 13.3 nM; in the experiment filed under Mus musculus (Mus musculus, Vas deferens), 0.0745 nM.

On to `N[C@@H](Cc1ccc(O)cc1)C(=O)N[C@H]1C(=O)NCC(=O)N[C@@H](Cc2ccccc2)C(=O)N[C@H](C(=O)O)CSSC12CCCCC2` (stereo in doubt; 5) [listing 1 of 2 here], for which the Ratio in [1] was less than 14.7.

Regarding `CC1(C)SSC[C@H](C(=O)O)NC(=O)[C@H](Cc2ccccc2)NC(=O)CNC(=O)[C@@H]1NC(=O)[C@@H](N)Cc1ccc(O)cc1`, inhibition in the experiment filed under Cavia porcellus (Cavia porcellus, Ileum) was half-maximal at 1350 nM (IC50). In experiment [2], this compound displayed a Ki of […].

Consider `N[C@@H](Cc1ccc(O)cc1)C(=O)N[C@H]1C(=O)NCC(=O)N[C@@H](Cc2ccccc2)C(=O)N[C@H](C(=O)O)CSSC12CCCCC2` (stereo in doubt; 6) [listing 1 of 2 here], for which the IC50 in the experiment listed under Cavia porcellus is 70900 nM; in the experiment listed under Mus musculus, greater than 4240 nM. The figures for the Ki (in [3]; in [4]; on Mu-type opioid receptor [5]) were 387 nM, 683 nM and 4010 nM, respectively.

In turn, `N[C@@H](Cc1ccc(O)cc1)C(=O)N[C@@H]1CSSC2(CCCCC2)[C@H](C(=O)O)NC(=O)[C@H](Cc2ccccc2)NC(=O)CNC1=O` gave an IC50 in the experiment listed under Mus musculus (Mus musculus, Vas deferens) of 0.0564 nM.

For the compound `N[C@@H](Cc1ccc(O)cc1)C(=O)N[C@H]1C(=O)NCC(=O)N[C@@H](Cc2ccccc2)C(=O)N[C@H](C(=O)O)CSSC12CCCCC2` (stereo in doubt; 5) [listing 2 of 2 here], the results for the IC50 in the experiment filed under Cavia porcellus and in the experiment listed under Mus musculus were 29900 nM and greater than 2040 nM, respectively. Also, the Ki in [6] stood at 31.3 nM; in experiment [7], 15 nM; on Mu-type opioid receptor [8], 1800 nM.

Take `CC1(C)SSC[C@@H](NC(=O)[C@@H](N)Cc2ccc(O)cc2)C(=O)NCC(=O)N[C@@H](Cc2ccccc2)C(=O)N[C@H]1C(=O)O`: the IC50 in the experiment filed under Cavia porcellus (Cavia porcellus, Ileum) was found to be 40 nM. Further, in experiment [2], the Ki was found to be […].

`N[C@@H](Cc1ccc(O)cc1)C(=O)N[C@H]1C(=O)NCC(=O)N[C@@H](Cc2ccccc2)C(=O)N[C@H](C(=O)O)CSSC12CCCCC2` (stereo in doubt; 6) [listing 2 of 2 here]: in experiment [9], the Ratio was less than 16.7.

`CC1(C)SSC[C@@H](NC(=O)[C@@H](N)Cc2ccc(O)cc2)C(=O)NCC(=O)N[C@@H](Cc2ccccc2)C(=O)N[C@@H]1C(=O)O` gave an IC50 in the experiment listed under Cavia porcellus (Cavia porcellus, Ileum) of 67 nM. In addition, in [2], the Ki came to […].
